Source: article PMC11625327, “Molecular determinants of neuropeptide-mediated activation mechanisms in tachykinin NK1 and NK2 receptors” (The Journal of Biological Chemistry, 2024)

Experiments:
Type in all cases: cell-based
NK1R F264Y M291F [1] = target: T1, NK1R F264Y M291F (Homo sapiens, UniProt P25103, F264Y/M291F); assay: BRET-based cAMP assay (Gs); conditions: COS-7, COS7 cells, CAMYEL BRET sensor, four-parameter fit, mean ± SEM of three independent experiments
T1 construct: host or cells: COS7
T1 sequence (P25103 whole entry F264Y/M291F): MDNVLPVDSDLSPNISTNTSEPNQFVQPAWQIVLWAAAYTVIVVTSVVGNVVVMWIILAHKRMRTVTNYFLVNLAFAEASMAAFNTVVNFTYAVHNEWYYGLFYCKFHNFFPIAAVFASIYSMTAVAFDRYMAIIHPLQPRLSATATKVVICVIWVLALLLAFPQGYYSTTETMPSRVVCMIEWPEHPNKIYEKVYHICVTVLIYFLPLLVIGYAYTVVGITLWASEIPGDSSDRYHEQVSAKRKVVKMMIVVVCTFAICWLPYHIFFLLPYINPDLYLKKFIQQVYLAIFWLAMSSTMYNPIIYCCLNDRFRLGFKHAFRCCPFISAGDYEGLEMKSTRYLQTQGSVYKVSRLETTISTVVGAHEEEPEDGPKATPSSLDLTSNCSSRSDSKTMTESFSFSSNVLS
Experimental: (§1) COS7 cells were tested monthly for mycoplasma and kept negative. COS7 cells were plated in either clear, white, or white with clear bottom 96-well plates that were coated with poly-D-lysine (Sigma-Aldrich) 30 min prior to cell seeding (20,000 cells/well). The following day plates were transiently transfected using calcium precipitation with 200 ng/well DNA in a culture medium with the addition of 100μM (final concentration) chloroquine. Transfection was stopped 5 h later with the addition of a fresh maintenance medium. Fig. […] The intracellular level of cAMP was monitored in real-time using BRET. This was achieved by implementing a construct consisting of a cAMP binding protein (exchange protein activated by cAMP [EPAC]) which has been flanked by a BRET pair consisting of Rluc and yellow fluorescent protein. This construct is called CAMYEL (cAMP sensor using yellow fluorescent protein-EPAC-Rluc) and enables cAMP production to be sensed as EPAC changes conformation in response to increasing levels of cAMP, ultimately resulting in a loss of BRET signal. […] The BRET signal was calculated as the ratio of emission intensity at 535 nm (citrine) to the emission intensity at 475 nm (luciferase). […] All dose-response curves have been calculated using Prism 10 software (GraphPad Software, www.graphpad.com) nonlinear regression with four parameters. […]

NK1R M291F [2] = target: T2, NK1R M291F (Homo sapiens, UniProt P25103, M291F); assay: BRET-based cAMP assay (Gs); conditions: COS-7, COS7 cells, CAMYEL BRET sensor, four-parameter fit, mean ± SEM of three independent experiments
T2 construct: host or cells: COS7
T2 sequence (P25103 whole entry M291F): as the sequence (P25103 whole entry F264Y/M291F) above, with Y264F counted along it
Experimental: as §1

NK1R F264Y M291F [3] = target: T1, NK1R F264Y M291F; assay: IP3 accumulation assay (Gq); conditions: COS-7, COS7 cells, [3H]inositol, 10 mM LiCl, 150 min 37 °C, mean ± SEM of three independent experiments
Experimental: (§2) COS7 cells were tested monthly for mycoplasma and kept negative. COS7 cells were plated in either clear, white, or white with clear bottom 96-well plates that were coated with poly-D-lysine (Sigma-Aldrich) 30 min prior to cell seeding (20,000 cells/well). The following day plates were transiently transfected using calcium precipitation with 200 ng/well DNA in a culture medium with the addition of 100μM (final concentration) chloroquine. Transfection was stopped 5 h later with the addition of a fresh maintenance medium. Fig. […] COS7 cells seeded in clear 96-well plates were incubated with 0.5 μCi/ml myo [3H]inositol (Perkin Elmer) in 100 μl growth medium overnight following the transfection. The subsequent day cells were washed twice with 200 μl/well HBSS (GIBCO, Life Technologies) and preincubated for 5 min at 37 °C with 100 μl/well HBSS buffer supplemented with 10 mM LiCl. Ligand addition was followed by 150 min incubation at 37 °C. To stop ligand incubation, cells were lysed with 40 μl 10 mM formic acid followed by 30 min incubation on ice. Thirty five microliters of the lysate was transferred to white 96-well plates together with 60 μl of 1:8 diluted YSi SPA scintillation beads (Perkin Elmer). Plates were sealed and vigorously shaken for 15 min, followed by 5 min centrifugation at 1500 rpm. Measurements (scintillation) were recorded on a Microbeta (PerkinElmer) after a 4 h delay and determinations were made in duplicates. All dose-response curves have been calculated using Prism 10 software (GraphPad Software, www.graphpad.com) nonlinear regression with four parameters. All data are shown as mean ± SEM unless stated otherwise and consist of two technical replicates from three biological replicates.

NK1R M291F [4] = target: T2, NK1R M291F; assay: IP3 accumulation assay (Gq); conditions: COS-7, COS7 cells, [3H]inositol, 10 mM LiCl, 150 min 37 °C, mean ± SEM of three independent experiments
Experimental: as §2

NK1R F264Y = target: T3, NK1R F264Y (Homo sapiens, UniProt P25103, F264Y); assay: IP3 accumulation assay (Gq); conditions: COS-7, COS7 cells, [3H]inositol, 10 mM LiCl, 150 min 37 °C, mean ± SEM of three independent experiments
T3 construct: host or cells: COS7
T3 sequence (P25103 whole entry F264Y): as the sequence (P25103 whole entry F264Y/M291F) above, with F291M counted along it
Experimental: as §2

Emax (NK1R F264Y M291F [1]): 125%
Emax (NK1R M291F [2]): 99.9%
Emax (NK1R F264Y M291F [3]): 102 ± 11%
Emax (NK1R M291F [4]): 102 ± 12.7%
Emax (NK1R F264Y): 105 ± 6.3%
Compound: CSCC[C@H](NC(=O)[C@H](CC(C)C)NC(=O)CNC(=O)[C@@H](NC(=O)[C@H](Cc1ccccc1)NC(=O)[C@H](CO)NC(=O)[C@H](CC(=O)O)NC(=O)[C@@H](NC(=O)[C@H](CCCCN)NC(=O)[C@@H](N)Cc1c[nH]cn1)[C@@H](C)O)C(C)C)C(N)=O [NKA, neurokinin A]
